Experiments:
[1] = tested on: patient positive for anti-NR1 NMDAR antibodies; assay: Time Wall; type: in vivo, human; conditions: post-6 weeks D-serine
Method: The trial consisted of two periods, starting with a 2 week lead-in/stabilization period (−2-0) following which the patient was entered in the second period of the study which consisted of a 6 week (0-6), open-label, fixed dose therapy phase. During this phase, the patient received adjuvant treatment with DSR, whose dose was increased from 1500 mg/day (week 1) to 2000 mg/day (weeks 2 and 3) to 3000 mg/day (weeks 4 and 5) and to 4000 mg/day (week 6). The doses of the ongoing medication received by the patient remained fixed throughout the study and no changes in medication were performed.
In addition, cognitive performance was assessed pre- and post DSR treatment. For this purpose, a 1.5-hour neurocognitive assessment battery (nine computerized and two paper/pencil tests) was employed that measures accuracy and speed of performance in major cognition domains, including attention/vigilance, planning, short-term and working memory, decision making, abstraction and mental flexibility. All the tests were formatted like games and puzzles, and were administered to the patient as part of the comprehensive neuropsychiatric assessment at baseline and the end of study. […]

[2] = tested on: patient positive for anti-NR1 NMDAR antibodies; assay: Quality of Life Scale (QLS), D-serine clinical trial; type: in vivo, human; conditions: for QLS Symptoms/side-effects: week 0 score 15.63; for QLS Motivation/energy: week 0 score 42.86; for QLS Psychosocial: week 0 score 60
From the text: Out of the seventeen patients that entered the study, the serum of one patient was strongly positive at both serum sample dilutions for the presence of both IgG and IgM classes of anti-NR1 NMDAR antibodies. The patient was a single person having a diagnosis of schizophrenia according to DSM-IV-R criteria (American Psychiatric Association, 2000 Diagnostic and Statistical Manual of Mental Disorders-(DSM-IV-TR), 4th edition. American Psychiatric Association Washington D.C. (Text Revision)). There was no history of mental disorder in the patient's family. The patient had completed post-high school studies and had worked as a secretary. After a period of continuous headaches, for which no organic basis had been found, they had abruptly developed an acute psychosis characterized by grandiose and paranoid delusions, mystical thinking, […] affect and agitation, They had been hospitalized in a psychiatric hospital and underwent treatment with antipsychotic drugs and electroconvulsive therapy with only partial response. The patient had never returned to their previous functional and except for short attempts at living in the community, has been hospitalized ever since. They have been refractory to treatment with various classes of antipsychotic drugs, was not diagnosed with any medical or neurological disorder and was maintained on sulpiride 50 mg/day, citalopram 40 mg/day, lorazepam 1 mg/day and promethazine 50 mg/day. […] DSR is a naturally occurring amino acid that acts in vivo as an obligatory co-agonist at the glycine modulatory site associated with NMDAR. […] Both acute and chronic administration of 1-2 g DSR in humans is known to result in ≥100 times increases in DSR serum levels (Kantrowitz et al., 2010, Schizophr Res121:125-30; Heresco-Levy et al., 2005, Biol Psychiatry 57:577-85). The trial consisted of two periods, starting with a 2 week lead-in/stabilization period (-2-0) following which the patient was entered in the second period of the study which consisted of a 6 week (0-6), open-label, fixed dose therapy phase. During this phase, the patient received adjuvant treatment with DSR, whose dose was increased from 1500 mg/day (week 1) to 2000 mg/day (weeks 2 and 3) to 3000 mg/day (weeks 4 and 5) and to 4000 mg/day (week 6). The doses of the ongoing medication received by the patient remained fixed throughout the study and no changes in medication were performed. The assessment procedures used in the study included clinical and neurocognitive examinations. Motor and psychiatric symptoms as well as side-effects were rated biweekly throughout the study. The following instruments were used: 1) Positive and Negative Syndrome Scale (PANSS) (Kay et al., 1987, Positive and Negative Syndrome Scale (PANSS) rating manual. San Rafael California: Social and Behavioral Sciences Documents); 2) Quality of Life Scale (QLS) (Wilkinson et al., 2000, Self-report quality of life measure for people with schizophrenia: the SQLS. Br J Psychiatry 177:42-6); 3) Abnormal Involuntary Movement Scale (AIMS) (Guy, 1976, ECDEU Assessment Manual for Psychopharmacology-Revised. Rockville, Md.: US Dept. of Health, Education and Welfare); 4) Simpson Angus Scale for Extrapyramidal Symptoms (SAS) (Simpson and Angus, 1970, Acta Psychiatr Scand Suppl. 212:11-9); and 5) Udvalg for […] Undersogelser (UKU) Side Effect Rating Scale (Lingjaerde, et al., 1987 Acta Psychiatr Scand Suppl 334:1-100). In conjunction with UKU ratings, patient's vital signs and body weight were monitored throughout the study.

N[C@H](CO)C(=O)O [D-serine]
Time Wall accuracy score, mean ± SD ([1]; pre-treatment 0.056 ± 0.053): 0.077 ± 0.051 | Time Wall correctly estimated trials, total (0-20) ([1]; pre-treatment 12): 6 | Quality of life of the patient ([2]; during treatment with DSR): improved considerably | Reduction in reported symptoms and side effects (QLS) ([2]; end of the 6 week treatment period vs baseline): ~3 times | QLS Symptoms/side-effects ([2]; study week 2): 9.38 | QLS Motivation/energy ([2]; study week 2): 42.86 | QLS Psychosocial ([2]; study week 2 of adjuvant D-serine): 55 | QLS Symptoms/side-effects ([2]; study week 4): 9.38 | QLS Motivation/energy ([2]; study week 4): 42.86 | QLS Psychosocial ([2]; study week 4 of adjuvant D-serine): 50 | QLS Symptoms/side-effects ([2]; study week 6): 3.13 | QLS Motivation/energy ([2]; study week 6): 42.86 | QLS Psychosocial ([2]; study week 6 of adjuvant D-serine): 38.33

From patent US11213522B2, “Autoimmune-induced glutamatergic receptor dysfunction methods and treatments” (SARAH HERZOG MEMORIAL HOSPITAL EZRAT NASHIM ASSOCIATION, priority 2013, dated 2022)
